The target in this experiment is T1, Kv1.3 potassium channel (Homo sapiens, UniProt P22001).
T1 construct: expressed in transfected cells
Kind of experiment: Kv1.3 potassium channel blocker activity, automated whole-cell patch clamp (Patchliner). In kind it is cell-based. The settings on record: CHO-K1 cells stably expressing Kv1.3; whole-cell current, Hill fit. The protocol:
Example 9. Evaluation of Kv1.3 Potassium Channel Blocker Activities
This assay is used to evaluate the disclosed compounds' activities as Kv1.3 potassium channel blockers.
CHO-K1 cells stably expressing Kv1.3 were grown in DMEM containing 10% heat-inactivated FBS, 1 mM Sodium Pyruvate, 2 mM L-Glutamine and G418 (500 μg/ml). Cells were grown in culture flasks at 37° C. in a […] incubator.
The cells were bathed in an extracellular solution containing 140 mM NaCl, 4 mM KCl, 2 mM CaCl2, 1 mM MgCl2, 5 mM Glucose, 10 mM HEPES; pH adjusted to 7.4 with NaOH; 295-305 mOsm. The internal solution contained 50 mM KCl, 10 mM NaCl, 60 mM KF, 20 mM EGTA, 10 mM HEPES; pH adjusted to 7.2 with KOH; 285 mOsm. All compounds were dissolved in DMSO at 30 mM. Compound stock solutions were freshly diluted with external solution to concentrations of 30 nM, 100 nM, 300 nM, 1 μM, 3 μM, 10 μM, 30 μM and 100 μM. The highest content of DMSO (0.3%) was present in 100 μM.
The currents were evoked by applying 100 ms depolarizing pulses from −90 mV (holding potential) to +40 mV were applied with 0.1 Hz frequency. Control (compound-free) and compound pulse trains for each compound concentration applied contained 20 pulses. 10-second breaks were used between pulse trains (see Table A below).
Whole-cell current recordings and compound application were enabled by means of an automated patch clamp platform Patchliner (Nanion Technologies GmbH). EPC 10 patch clamp amplifier (HEKA Elektronik Dr. Schulze GmbH) along with Patchmaster software (HEKA Elektronik Dr. Schulze GmbH) was used for data acquisition. Data were sampled at 10 kHz without filtering. Passive leak currents were subtracted online using a P/4 procedure (HEKA Elektronik Dr. Schulze GmbH). Increasing compound concentrations were applied consecutively to the same cell without washouts in between. Total compound incubation time before the next pulse train was not longer than 10 seconds. Peak current inhibition was observed during compound equilibration.
AUC and peak values were obtained with Patchmaster (HEKA Elektronik Dr. Schulze GmbH). To determine IC50, the last single pulse in the pulse train corresponding to a given compound concentration was used. Obtained AUC and peak values in the presence of compound were normalized to control values in the absence of compound. Using Origin (OridinLab), IC50 was derived from data fit to Hill equation: Icompound/Icontrol=(100−A)/(1+([compound]/IC50)nH)+A, where IC50 value is the concentration at which current inhibition is half-maximal, [compound] is the applied compound concentration, A is the fraction of current that is not blocked and nH is the Hill coefficient.
For orientation: The patch-clamp technique gives a direct electrical read-out from membranes.

The structures appear in SMILES notation.

Usually IC50 stands for the concentration that gives 50% inhibition.

T1 sequence (P22001 whole entry): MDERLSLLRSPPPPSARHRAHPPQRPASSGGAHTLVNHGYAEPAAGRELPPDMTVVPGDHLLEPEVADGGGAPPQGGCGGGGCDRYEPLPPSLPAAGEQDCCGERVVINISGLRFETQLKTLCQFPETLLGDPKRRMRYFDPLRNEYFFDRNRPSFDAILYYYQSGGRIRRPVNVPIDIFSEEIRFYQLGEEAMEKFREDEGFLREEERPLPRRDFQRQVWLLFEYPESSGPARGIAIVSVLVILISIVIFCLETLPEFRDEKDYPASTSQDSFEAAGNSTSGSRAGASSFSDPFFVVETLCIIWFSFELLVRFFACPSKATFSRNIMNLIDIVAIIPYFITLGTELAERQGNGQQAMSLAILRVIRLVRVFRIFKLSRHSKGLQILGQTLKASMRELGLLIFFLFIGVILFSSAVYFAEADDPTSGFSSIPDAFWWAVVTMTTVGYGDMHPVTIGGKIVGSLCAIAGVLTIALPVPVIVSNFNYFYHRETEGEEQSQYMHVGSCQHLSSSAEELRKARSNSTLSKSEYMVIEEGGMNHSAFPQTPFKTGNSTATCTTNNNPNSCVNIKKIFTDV

Compound `Cc1ccc(O)c([C@@H]2CCN3C(=O)[C@@H](CO)NC(=O)[C@@H]3C2)c1Cl` (relative stereo) [Compound 28, (8R,9aS)-rel-8-(2-chloro-6-hydroxy-3-methylphenyl)-3-((3R)-hydroxymethyl)-hexahydro-2H-pyrido[1,2-a]pyrazine-1,4-dione] displayed an IC50 of less than 1 µM.
Compound `NC[C@H]1NC(=O)[C@@H]2C[C@H](c3c(O)ccc(Cl)c3Cl)CCN2C1=O` (relative stereo) [Compound 38, (8R,9aS)-rel-3-((3R)-aminomethyl)-8-(2,3-dichloro-6-hydroxyphenyl)-hexahydro-2H-pyrido[1,2-a]pyrazine-1,4-dione; trifluoroacetic acid] had an IC50 of less than 1 µM.
Compound `Cc1c(Cl)ccc(O)c1[C@@H]1CCN2C(=O)[C@@H](CO)NC(=O)[C@@H]2C1` (relative stereo) [Compound 49, (8R,9aS)-rel-8-(3-chloro-6-hydroxy-2-methylphenyl)-3-((3R)-hydroxymethyl)-hexahydro-2H-pyrido[1,2-a]pyrazine-1,4-dione] showed a concentration for half-maximal inhibition (IC50) of less than 10 µM.
In turn, `O=C1NC(=O)N2CC[C@@H](c3c(O)ccc(Cl)c3Cl)C[C@@H]12` (single isomer, unassigned; diastereoisomer 2) [Compound 19, 7-(2,3-dichloro-6-hydroxyphenyl)tetrahydro-imidazo[1,5-a]pyridine-1,3(2H,5H)-dione diastereoisomer 2] returned an IC50 of less than 1 µM.
As for `O=C1[C@H]2C[C@H](O)CN2C(=O)[C@H]2C[C@@H](c3c(O)ccc(Cl)c3Cl)CCN12` (single isomer, unassigned; isomer 1) [Compound 23, 7-(2,3-dichloro-6-hydroxyphenyl)-2-hydroxyhexahydro-1H-pyrido[1,2-a]pyrrolo[1,2-d]pyrazine-5,11(5aH,11aH)-dione isomer 1], the figure is less than 10 µM; as for `O=C1[C@@H]2C[C@H](c3c(O)ccc(Cl)c3Cl)CCN2C(=O)[C@@H]2[C@H](O)CCN12` (single isomer, unassigned; isomer 1) [Compound 29, 7-(2,3-dichloro-6-hydroxyphenyl)-1-hydroxyhexahydro-1H-pyrido[1,2-a]pyrrolo[1,2-d]pyrazine-5,11(5aH,11aH)-dione isomer 1], less than 10 µM; as for `O=C1[C@H]2[C@H](O)CCN2C(=O)[C@H]2C[C@@H](c3c(O)ccc(Cl)c3Cl)CCN12` (single isomer, unassigned; isomer 2) [Compound 17, 7-(2,3-dichloro-6-hydroxyphenyl)-1-hydroxyhexahydro-1H-pyrido[1,2-a]pyrrolo[1,2-d]pyrazine-5,11(5aH,11aH)-dione isomer 2], less than 1 µM.
The value for `O=C1[C@H]2C[C@@H](c3c(O)ccc(Cl)c3Cl)CCN2C(=O)CN1C1CC(O)C1` (single isomer, unassigned; isomer 3) [Compound 34, 8-(2,3-dichloro-6-hydroxyphenyl)-2-[3-hydroxycyclobutyl]-hexahydropyrido[1,2-a]pyrazine-1,4-dione isomer 3] was less than 10 µM.
The value for `O=C1[C@@H]2C[C@H](O)CN2C(=O)[C@H]2C[C@@H](c3c(O)ccc(Cl)c3Cl)CCN12` (single isomer, unassigned; isomer 3) [Compound 45, 7-(2,3-dichloro-6-hydroxyphenyl)-2-hydroxyhexahydro-1H-pyrido[1,2-a]pyrrolo[1,2-d]pyrazine-5,11(5aH,11aH)-dione isomer 3] was less than 10 µM; that for `O=C1[C@H]2[C@H](O)CCN2C(=O)[C@@H]2C[C@H](c3c(O)ccc(Cl)c3Cl)CCN12` (single isomer, unassigned; isomer 3) [Compound 69, 7-(2,3-dichloro-6-hydroxyphenyl)-1-hydroxyhexahydro-1H-pyrido[1,2-a]pyrrolo[1,2-d]pyrazine-5,11(5aH,11aH)-dione isomer 3] was less than 1 µM.
`O=C1[C@H]2C[C@@H](c3c(O)ccc(Cl)c3Cl)CCN2C(=O)CN1C1CC(O)C1` (single isomer, unassigned; isomer 4) [Compound 5, 8-(2,3-dichloro-6-hydroxyphenyl)-2-[3-hydroxycyclobutyl]-hexahydropyrido[1,2-a]pyrazine-1,4-dione isomer 4] showed an IC50 of less than 10 µM.
The value for `C[C@@H]1NC(=O)C2CC(c3c(O)ccc(Cl)c3Cl)CCN2C1=O` (stereo partly drawn) [Compound 4, (3S)-8-(2,3-dichloro-6-hydroxyphenyl)-3-methyl-octahydro-1H-pyrido[1,2-a]pyrazine-1,4-dione] was less than 10 µM; that for `O=C1[C@H]2C[C@@H](c3cc(Cl)c(Cl)cc3O)CCN2C(=O)CN1C1CNC1` [Compound 10, (8S,9aR)-2-(azetidin-3-yl)-8-(4,5-dichloro-2-hydroxyphenyl)hexahydro-4H-pyrido[1,2-a]pyrazine-1,4(6H)-dione] was less than 10 µM.
As for `CC[C@H]1NC(=O)[C@H]2C[C@@H](c3c(O)ccc(Cl)c3Cl)CCN2C1=O` [Compound 11, (8S,9aR)-8-(2,3-dichloro-6-hydroxyphenyl)-3-(3R)-ethyl-hexahydro-2H-pyrido[1,2-a]pyrazine-1,4-dione], the figure is less than 1 µM; as for `CN1C(=O)[C@H]2C[C@@H](c3c(O)ccc(Cl)c3Cl)CCN2C(=O)[C@H]1CO` [Compound 13, (3R,8S,9aR)-8-(2,3-dichloro-6-hydroxyphenyl)-3-(hydroxymethyl)-2-methyl-hexahydropyrido[1,2-a]pyrazine-1,4-dione], less than 30 µM; as for `O=C1NNC(=O)N2CC[C@H](c3c(O)ccc(Cl)c3Cl)C[C@H]12` [Compound 15, (8S,9aR)-8-(2,3-dichloro-6-hydroxyphenyl)hexahydro-4H-pyrido[1,2-d][1,2,4]triazine-1,4(6H)-dione], less than 10 µM.
For `C[C@@H](O)[C@H]1NC(=O)[C@H]2C[C@@H](c3c(O)ccc(Cl)c3Cl)CCN2C1=O` [Compound 16, (3R,8S,9aR)-8-(2,3-dichloro-6-hydroxyphenyl)-3-[(1R)-1-hydroxyethyl]-hexahydro-2H-pyrido[1,2-a]pyrazine-1,4-dione], the IC50 was less than 10 µM.
`O=C1[C@H]2C[C@@H](c3c(O)ccc(Cl)c3Cl)CCN2C(=O)CN1C(CO)CO` [Compound 21, (8S,9aR)-8-(2,3-dichloro-6-hydroxyphenyl)-2-(1,3-dihydroxypropan-2-yl)hexahydro-4H-pyrido[1,2-a]pyrazine-1,4(6H)-dione]: the IC50 was less than 10 µM.
The value for `O=C1[C@H]2[C@@H](O)CCN2C(=O)[C@H]2C[C@@H](c3c(O)ccc(Cl)c3Cl)CCN12` [Compound 25, (1S,5aR,7S,11aR)-7-(2,3-dichloro-6-hydroxyphenyl)-1-hydroxyhexahydro-1H-pyrido[1,2-a]pyrrolo[1,2-d]pyrazine-5,11(5aH,11aH)-dione] was less than 10 µM; that for `NN1C(=O)[C@H]2C[C@@H](c3c(O)ccc(Cl)c3Cl)CCN2C1=O` [Compound 27, (7S,8aR)-2-amino-7-(2,3-dichloro-6-hydroxyphenyl)tetrahydro-imidazo[1,5-a]pyridine-1,3(2H,5H)-dione] was less than 1 µM.
As for `O=C1N[C@H](CO)C(=O)N2CC(c3c(O)ccc(Cl)c3Cl)CC12` (stereo partly drawn) [Compound 31, (3R)-7-(2,3-dichloro-6-hydroxyphenyl)-3-(hydroxymethyl)hexahydro-pyrrolo[1,2-a]pyrazine-1,4-dione], the figure is less than 1 µM; as for `O=C1NNC(=O)N2CC[C@@H](c3c(O)ccc(Cl)c3Cl)C[C@@H]12` [Compound 33, (8R,9aS)-8-(2,3-dichloro-6-hydroxyphenyl)hexahydro-4H-pyrido[1,2-d][1,2,4]triazine-1,4(6H)-dione], less than 1 µM.
`O=C1[C@H]2C[C@@H](c3c(O)ccc(Cl)c3Cl)CCN2C(=O)CN1CCO` [Compound 37, (8S,9aR)-8-(2,3-dichloro-6-hydroxyphenyl)-2-(2-hydroxyethyl)-hexahydropyrido[1,2-a]pyrazine-1,4-dione]: the IC50 is less than 10 µM.
As for `CC(C)[C@@H](O)[C@@H]1NC(=O)[C@H]2C[C@@H](c3c(O)ccc(Cl)c3Cl)CCN2C1=O` [Compound 39, (3S,8S,9aR)-8-(2,3-dichloro-6-hydroxyphenyl)-3-[(1R)-1-hydroxy-2-methylpropyl]-hexahydro-2H-pyrido[1,2-a]pyrazine-1,4-dione], the figure is less than 10 µM.

The values are drawn from US20230040182A1, “ARYL HETEROBICYCLIC COMPOUNDS AS Kv1.3 POTASSIUM SHAKER CHANNEL BLOCKERS” (priority 2019, published 2023).
